Experimental data reported in ChEMBL document CHEMBL3885861, “Open TG-GATES”.

Species: Rattus norvegicus
Test: Open TG-GATES - Regimen: Daily Repeat
Type: toxicity, organism-based, Sprague-Dawley
Set-up: regimen Daily Repeat, gender Male, age 6 weeks
Conditions: in vivo, po, route gavage; for Eos / Fbg / Hb / Ht / Lym / MCHC / MCV / Mono / Neu / PT / Plat / RBC / Ret / WBC / Bas: tissue Blood; for ALP / AST / BUN / CRE / Ca / Cl / DBIL / GLC / IP / K / LDH / Na / PL / RALB / TBIL / TC / TG / TP / gamma-GTP / ALT: tissue Plasma
[1] = 300 mg/kg, 72 h, dose level Middle, time 3 day
[2] = 300 mg/kg, […], dose level Middle, time 7 day
[3] = 300 mg/kg, […], dose level Middle, time 14 day
[4] = 300 mg/kg, […], dose level Middle, time 28 day
[5] = 1000 mg/kg, 72 h, dose level High, time 3 day
[6] = 1000 mg/kg, […], dose level High, time 7 day
[7] = 1000 mg/kg, […], dose level High, time 14 day
[8] = 1000 mg/kg, […], dose level High, time 28 day

Molecule O=C(O)c1cccnc1 [NIACIN] has an Eos [1] of 1%, a Fbg [1] of 314.2 mg/dL and a Hb [1] of 13.3 g/dL. For the same molecule, the Ht [1] was 40.2%, the Lym [1] was 75.2% and the MCHC [1] was 33%. It also gave an MCV [1] of 63.4 fL, a Mono [1] of 3.6% and a Neu [1] of 19%. The PT [1] was 16 s, the Plat [1] was 132.1 x10_4/uL and the RBC [1] was 635.6 x10_4/ul. For the same molecule, the Ret [1] was 7.2%, the WBC [1] was 106.7 x10_2/uL and the ALP [1] was 1606.8 IU/L. It also gave an AST [1] of 74.6 IU/L, a BUN [1] of 16.4 mg/dL and a CRE [1] of 0.2 mg/dL. The Ca [1] was 10.8 mg/dL, the Cl [1] was 104 meq/L and the DBIL [1] was 0 mg/dL. The GLC [1] was 191.6 mg/dL, the IP [1] was 8.2 mg/dL and the K [1] was 4.1 meq/L. The LDH [1] was 165.8 IU/L, the Na [1] was 139.6 meq/L and the PL [1] was 152.8 mg/dL. The RALB [1] was 3 g/dL, the TBIL [1] was 0 mg/dL and the TC [1] was 73.2 mg/dL. The TG [1] was 136.2 mg/dL, the TP [1] was 5.6 g/dL and the gamma-GTP [1] was 1.2 IU/L. For the same molecule, the TERMINAL_BW [2] was 273.2 g, the TERMINAL_BW [3] was 321.5 g and the TERMINAL_BW [4] was 396.3 g. For the same molecule, the Bas [2] was 0%, the Eos [2] was 1% and the Fbg [2] was 325.8 mg/dL. It also gave a Hb [2] of 13.8 g/dL, a Ht [2] of 41.4% and a Lym [2] of 75%. The MCHC [2] was 33.4%, the MCV [2] was 63.5 fL and the Mono [2] was 3.4%. It also gave a Neu [2] of 19.2%, a PT [2] of 15.6 s and a Plat [2] of 112.8 x10_4/uL. The RBC [2] was 652.2 x10_4/ul, the Ret [2] was 6% and the WBC [2] was 104.1 x10_2/uL. The Bas [3] was 0%, the Eos [3] was 0.6% and the Fbg [3] was 325.2 mg/dL. It also gave a Ht [3] of 42.2%, a Lym [3] of 72.6% and an MCHC [3] of 33.7%. For the same molecule, the MCV [3] was 59.8 fL, the Mono [3] was 3.4% and the Neu [3] was 21.8%. For the same molecule, the PT [3] was 15.5 s, the Plat [3] was 109.4 x10_4/uL and the RBC [3] was 705.8 x10_4/ul. It also gave a Ret [3] of 4.7%, a WBC [3] of 119.8 x10_2/uL and a Bas [4] of 0%. For the same molecule, the Eos [4] was 1.2%, the Fbg [4] was 336.6 mg/dL and the Hb [4] was 15 g/dL. For the same molecule, the Ht [4] was 42.6%, the Lym [4] was 74.8% and the MCHC [4] was 35.3%. The MCV [4] was 56 fL, the Mono [4] was 2.8% and the PT [4] was 16.1 s. It also gave a Plat [4] of 100.4 x10_4/uL, an RBC [4] of 761.2 x10_4/ul and a Ret [4] of 2.6%. For the same molecule, the WBC [4] was 105.7 x10_2/uL, the ALP [2] was 1661 IU/L and the ALT [2] was 47.8 IU/L. The AST [2] was 76 IU/L, the BUN [2] was 17.6 mg/dL and the CRE [2] was 0.1 mg/dL. The Ca [2] was 10.7 mg/dL, the Cl [2] was 105 meq/L and the DBIL [2] was 0 mg/dL. The GLC [2] was 189 mg/dL, the IP [2] was 7.4 mg/dL and the K [2] was 4.3 meq/L. It also gave an LDH [2] of 138.4 IU/L, a Na [2] of 139.8 meq/L and a PL [2] of 161.8 mg/dL. For the same molecule, the RALB [2] was 2.9 g/dL, the TBIL [2] was 0 mg/dL and the TC [2] was 79.6 mg/dL. The TG [2] was 135.8 mg/dL, the TP [2] was 5.5 g/dL and the gamma-GTP [2] was 1.4 IU/L. It also gave an ALP [3] of 1495.2 IU/L, an ALT [3] of 39.6 IU/L and an AST [3] of 68.8 IU/L. The CRE [3] was 0.2 mg/dL, the Ca [3] was 10.7 mg/dL and the Cl [3] was 104.4 meq/L. The DBIL [3] was 0 mg/dL, the GLC [3] was 201 mg/dL and the IP [3] was 6.8 mg/dL. The K [3] was 3.9 meq/L, the LDH [3] was 166.4 IU/L and the Na [3] was 137.6 meq/L. For the same molecule, the PL [3] was 162.6 mg/dL, the RALB [3] was 3.1 g/dL and the TBIL [3] was 0.006 mg/dL. The TC [3] was 77.6 mg/dL, the TG [3] was 156 mg/dL and the TP [3] was 5.8 g/dL. The gamma-GTP [3] was 1.8 IU/L, the ALP [4] was 1059.8 IU/L and the ALT [4] was 41.4 IU/L. It also gave an AST [4] of 71.2 IU/L, a BUN [4] of 16 mg/dL and a CRE [4] of 0.2 mg/dL. The Ca [4] was 10.4 mg/dL, the Cl [4] was 107 meq/L and the DBIL [4] was 0 mg/dL. For the same molecule, the GLC [4] was 193.6 mg/dL, the IP [4] was 6.3 mg/dL and the K [4] was 4.4 meq/L. It also gave an LDH [4] of 149.2 IU/L, a Na [4] of 143 meq/L and a PL [4] of 140.4 mg/dL. The RALB [4] was 3 g/dL, the TBIL [4] was 0.008 mg/dL and the TC [4] was 69.4 mg/dL. It also gave a TG [4] of 126.6 mg/dL, a TP [4] of 6.1 g/dL and a gamma-GTP [4] of 2.8 IU/L. It also gave a TERMINAL_BW [5] of 239.5 g, a Bas [5] of 0% and an Eos [5] of 0.8%. It also gave a Fbg [5] of 319.4 mg/dL, a Hb [5] of 13.5 g/dL and a Ht [5] of 40.1%. For the same molecule, the Lym [5] was 73.6%, the MCHC [5] was 33.5% and the MCV [5] was 62.3 fL. For the same molecule, the Mono [5] was 3.8%, the Plat [5] was 119.3 x10_4/uL and the RBC [5] was 645 x10_4/ul. The Ret [5] was 5.7%, the WBC [5] was 116 x10_2/uL and the ALP [5] was 1534.6 IU/L. The ALT [5] was 48.8 IU/L, the AST [5] was 77.8 IU/L and the BUN [5] was 17.2 mg/dL. The CRE [5] was 0.2 mg/dL, the Ca [5] was 10.9 mg/dL and the Cl [5] was 104.2 meq/L. The DBIL [5] was 0 mg/dL, the GLC [5] was 187.6 mg/dL and the IP [5] was 8.5 mg/dL. It also gave a K [5] of 4.1 meq/L, an LDH [5] of 176.6 IU/L and a Na [5] of 139.4 meq/L. The PL [5] was 148.8 mg/dL, the RALB [5] was 3.1 g/dL and the TBIL [5] was 0 mg/dL. For the same molecule, the TC [5] was 73.4 mg/dL, the TG [5] was 97.6 mg/dL and the TP [5] was 5.6 g/dL. For the same molecule, the gamma-GTP [5] was 1.2 IU/L, the TERMINAL_BW [6] was 270 g and the TERMINAL_BW [7] was 315.4 g. For the same molecule, the TERMINAL_BW [8] was 425.7 g, the Bas [6] was 0% and the Eos [6] was 0.8%. For the same molecule, the Fbg [6] was 325.4 mg/dL, the Hb [6] was 13.6 g/dL and the Ht [6] was 40.6%. The Lym [6] was 77.2%, the MCHC [6] was 33.5% and the MCV [6] was 61.6 fL. The Mono [6] was 3.4%, the Neu [6] was 16.8% and the PT [6] was 16 s. For the same molecule, the Plat [6] was 107.2 x10_4/uL, the RBC [6] was 659.8 x10_4/ul and the Ret [6] was 6.7%. It also gave a WBC [6] of 127.7 x10_2/uL, a Bas [7] of 0% and an Eos [7] of 0.6%. For the same molecule, the Fbg [7] was 295.4 mg/dL, the Hb [7] was 13.9 g/dL and the Ht [7] was 41.5%. It also gave a Lym [7] of 75.2%, an MCHC [7] of 33.6% and a Mono [7] of 2.4%. For the same molecule, the Neu [7] was 19.8%, the PT [7] was 15.2 s and the Plat [7] was 114.8 x10_4/uL. For the same molecule, the RBC [7] was 684.2 x10_4/ul, the Ret [7] was 4.6% and the WBC [7] was 131.3 x10_2/uL. It also gave a Bas [8] of 0%, an Eos [8] of 1% and a Fbg [8] of 310.8 mg/dL. It also gave a Hb [8] of 14.8 g/dL, a Ht [8] of 42.1% and a Lym [8] of 75.6%. For the same molecule, the MCHC [8] was 35.2%, the MCV [8] was 56.4 fL and the Mono [8] was 3.6%. It also gave a Neu [8] of 18.2%, a PT [8] of 15.8 s and a Plat [8] of 88.1 x10_4/uL. The RBC [8] was 747.2 x10_4/ul, the Ret [8] was 2.7% and the WBC [8] was 127.6 x10_2/uL. For the same molecule, the ALP [6] was 1693.6 IU/L, the ALT [6] was 45.6 IU/L and the AST [6] was 77.6 IU/L. The BUN [6] was 15.8 mg/dL, the CRE [6] was 0.2 mg/dL and the Ca [6] was 10.6 mg/dL. The Cl [6] was 104.8 meq/L, the DBIL [6] was 0 mg/dL and the GLC [6] was 196.6 mg/dL. The IP [6] was 7.5 mg/dL, the K [6] was 4.5 meq/L and the LDH [6] was 137.2 IU/L. For the same molecule, the Na [6] was 139 meq/L, the PL [6] was 142.4 mg/dL and the RALB [6] was 3 g/dL. The TBIL [6] was 0.004 mg/dL, the TC [6] was 69.2 mg/dL and the TG [6] was 107 mg/dL. For the same molecule, the TP [6] was 5.6 g/dL, the gamma-GTP [6] was 1.8 IU/L and the ALP [7] was 1458 IU/L. It also gave an ALT [7] of 44.8 IU/L, an AST [7] of 86.8 IU/L and a BUN [7] of 17.2 mg/dL. The CRE [7] was 0.2 mg/dL, the Ca [7] was 10.5 mg/dL and the Cl [7] was 105.2 meq/L. It also gave a DBIL [7] of 0 mg/dL, a GLC [7] of 195.6 mg/dL and an IP [7] of 7 mg/dL. The K [7] was 4.1 meq/L, the LDH [7] was 140.8 IU/L and the Na [7] was 138.8 meq/L. It also gave a PL [7] of 150.8 mg/dL, an RALB [7] of 3.1 g/dL and a TBIL [7] of 0.012 mg/dL. The TC [7] was 67.2 mg/dL, the TG [7] was 163.6 mg/dL and the TP [7] was 5.7 g/dL. The gamma-GTP [7] was 1.8 IU/L, the ALP [8] was 1046.8 IU/L and the ALT [8] was 47 IU/L. For the same molecule, the AST [8] was 80.8 IU/L, the BUN [8] was 17.8 mg/dL and the CRE [8] was 0.2 mg/dL. The Ca [8] was 10.5 mg/dL, the Cl [8] was 104 meq/L and the DBIL [8] was 0 mg/dL. It also gave a GLC [8] of 196.6 mg/dL, an IP [8] of 7.1 mg/dL and a K [8] of 4.2 meq/L. The LDH [8] was 157.4 IU/L, the Na [8] was 143.4 meq/L and the PL [8] was 152 mg/dL. For the same molecule, the RALB [8] was 3 g/dL, the TBIL [8] was 0.01 mg/dL and the TC [8] was 68.4 mg/dL. It also gave a TG [8] of 184 mg/dL, a TP [8] of 5.8 g/dL and a gamma-GTP [8] of 2.4 IU/L.
